Data set [1] can be described thus: in vitro. Particulars: pig, PAMPA, pH 7.4. For orientation: The PAMPA barrier holds no transporters, so it reflects passive diffusion.
The target of data set [2] is T1, recombinant hAChE (Homo sapiens, UniProt P22303).
T1 construct: purchased Sigma-Aldrich (Prague, Czech Republic)
The data set is described as follows: Kinetic study of hAChE inhibition. It is filed as biochemical. Conditions: for type of inhibition: nonlinear regression with sum-of-squares F-test, p < 0.05; for Ki: nonlinear regression, ATCh 156–1250 µM. From the text:
The mode of interaction of the hAChE inhibition was elucidated for 1 and 2 using a kinetic study in order to gain information about the mode of inhibition and the binding site of the isolated alkaloids. Recombinant hAChE was used in this kinetic analysis of 1 and 2. […] The type of the inhibition mechanism was clarified by a nonlinear regression analysis. The results computed for each model type of inhibition (competitive, non-competitive, uncompetitive and mixed) were compared with the sum-of-squares F-test.
The kinetic study of hAChE inhibition was performed by using Ellman’s method (described above). […] Reactions were performed in triplicate. Vmax and Km values, respectively, of the Michaelis-Menten kinetics and Ki were calculated by non-linear regression from the substrate velocity curves. Linear regression was used for calculation of Lineweaver-Burk plots. All calculations were performed using the GraphPad Prism software.

Data set [3] addresses T2, human plasma butyrylcholinesterase (hBChE) (Homo sapiens, UniProt P06276).
T2 construct: Recombinant hAChE and plasma hBChE were used as sources of cholinesterases; purchased Sigma-Aldrich (Prague, Czech Republic); host or cells: human plasma
Description: hBChE inhibition, modified Ellman's method. It is filed as biochemical. Conditions: BTCh substrate, pH 7.4, 37 °C, mean ± SEM of three measurements. The source says: (§1) Human recombinant acetylcholinesterase (hAChE; EC 3.1.1.7), human plasma butyrylcholinesterase (hBChE; EC 3.1.1.8), 5,5′-dithiobis(2-nitrobenzoic acid) (Ellman’s reagent, DTNB), phosphate buffer (PB, pH 7.4), dimethyl sulfoxide (DMSO), acetylthiocholine (ATCh), and butyrylthiocholine (BTCh) were purchased from Sigma-Aldrich (Prague, Czech Republic). Polystyrene Nunc 96-well microplates with flat bottom shape (ThermoFisher Scientific, Waltham, MA, USA) were utilized for measuring purposes of cholinesterase assays and the kinetic inhibition study.
(§2) The hAChE and hBChE inhibitory activity of the tested compounds was determined using a modified Ellman’s method. All the assays were carried out in 0.1 M KH2PO4/K2HPO4 buffer, pH 7.4. Enzyme solutions were prepared at an activity of 2.0 units/mL in 2 mL aliquots. The assay medium ([…]) consisted of 40 µL of 0.1 M phosphate buffer (pH 7.4), 20 µL of 0.01 M DTNB, 10 µL of enzyme, and 20 µL of 0.01 M substrate (ATCh iodide solution). […] The reaction started by addition of 20 µL of the substrate (ATCh for hAChE, BTCh for hBChE). […] Each concentration was assayed in triplicate.

In data set [4] the test system is selected human carcinoma and non-carcinoma cells. Particulars: read-out: cytotoxicity IC50; cited from earlier work.
Data set [5] deals with T3, human recombinant acetylcholinesterase (hAChE) (Homo sapiens, UniProt P22303).
T3 construct: purchased Sigma-Aldrich (Prague, Czech Republic)
T3 sequence (P22303 32-614): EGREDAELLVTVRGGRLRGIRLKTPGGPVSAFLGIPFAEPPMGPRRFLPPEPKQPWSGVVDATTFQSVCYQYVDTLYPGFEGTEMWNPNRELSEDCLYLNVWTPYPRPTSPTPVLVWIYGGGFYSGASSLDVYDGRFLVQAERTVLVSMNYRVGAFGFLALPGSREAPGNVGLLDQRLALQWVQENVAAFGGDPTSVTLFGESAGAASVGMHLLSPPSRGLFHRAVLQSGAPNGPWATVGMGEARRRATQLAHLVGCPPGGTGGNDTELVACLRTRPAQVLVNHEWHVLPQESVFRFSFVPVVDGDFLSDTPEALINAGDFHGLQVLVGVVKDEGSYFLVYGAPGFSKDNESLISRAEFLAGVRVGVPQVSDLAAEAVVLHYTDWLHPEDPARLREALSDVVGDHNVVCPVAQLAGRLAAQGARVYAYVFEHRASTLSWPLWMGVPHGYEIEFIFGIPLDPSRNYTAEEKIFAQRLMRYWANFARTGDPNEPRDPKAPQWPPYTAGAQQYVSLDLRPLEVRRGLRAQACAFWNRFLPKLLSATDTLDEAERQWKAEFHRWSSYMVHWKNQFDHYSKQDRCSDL
The data set is described as follows: biochemical. Conditions: for SI (selectivity index for hAChE): ratio IC50 hBChE / IC50 hAChE; for IC50: recombinant hAChE, ATCh substrate, pH 7.4, 37 °C, mean ± SEM of three measurements.
Description: as §1, §2

Data set [6] concerns AChE (red blood cell ghosts). Particulars: earlier screening, 25 °C, red blood cell ghosts as AChE source; cited from earlier work.
The conditions of data set [7]: Table S1, predictive penetration into the CNS.

SMILES strings stand for the structures. Some results are limits rather than exact numbers.

The Papp is the rate of passage across a membrane or cell layer, normalised by area and donor concentration. Low values mean slow passage, high ones fast passage. A word on the Ki: it is a measure of affinity in units of concentration, obtained from inhibition or displacement. One may read the IC50 as the concentration that inhibits the measured activity by half.

T1 sequence (P22303 32-614): as above
T2 sequence (P06276 29-602): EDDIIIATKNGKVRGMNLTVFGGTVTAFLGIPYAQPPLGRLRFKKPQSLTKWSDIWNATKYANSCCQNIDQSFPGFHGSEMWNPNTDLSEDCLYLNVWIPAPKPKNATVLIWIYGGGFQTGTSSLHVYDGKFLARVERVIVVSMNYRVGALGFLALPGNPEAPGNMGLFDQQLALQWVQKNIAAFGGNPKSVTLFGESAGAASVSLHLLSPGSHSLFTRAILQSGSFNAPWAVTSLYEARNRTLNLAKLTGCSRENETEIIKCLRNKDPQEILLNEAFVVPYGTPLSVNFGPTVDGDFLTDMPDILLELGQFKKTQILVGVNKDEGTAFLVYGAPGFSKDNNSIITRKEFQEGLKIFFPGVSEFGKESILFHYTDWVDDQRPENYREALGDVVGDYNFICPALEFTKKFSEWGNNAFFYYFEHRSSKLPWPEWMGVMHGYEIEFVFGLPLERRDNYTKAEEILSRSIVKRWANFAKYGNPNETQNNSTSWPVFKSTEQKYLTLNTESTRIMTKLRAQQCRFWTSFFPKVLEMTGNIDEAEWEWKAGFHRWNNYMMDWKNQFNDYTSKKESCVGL

In the case of `COc1ccc2c(c1OC)CN1CCc3cc4c(cc3[C@H]1[C@H]2C)OCO4` [Compound 1, (+)-thalictricavine], the Papp in data set [1] is 2.5 ± 0.1 ×10⁻⁶ cm/s. Moreover, in data set [2], the type of inhibition result is on record as “competitive” and the Ki came out at 174 ± 56.9 nM. In data set [3], this compound had an IC50 above 100000 nM. Moreover, in data set [4], the IC50 was above 10000 nM. In data set [5], the “SI (selectivity index for hAChE)” value was above 263 and the IC50 was 380 ± 50 nM.
In turn, `COc1ccc2c(c1OC)CN1CCc3cc4c(cc3[C@H]1C2)OCO4` [Compound 2, (+)-canadine] registered a Papp in data set [1] of 5 ± 0.3 ×10⁻⁶ cm/s. Also, in data set [2], the type of inhibition result was “competitive” and the Ki was found to be 129 ± 44 nM. The “IC50 value for AChE” value in data set [6] is given as “low micromolar range”. For the same compound, the IC50 in data set [3] was above 100000 nM. Moreover, the concentration for half-maximal inhibition (IC50) in data set [4] was above 10000 nM. In data set [5], the “SI (selectivity index for hAChE)” value is recorded as above 143 and the half-maximal inhibitory concentration (IC50) was 700 ± 70 nM. Also, in data set [7], the PAMPA-BBB prediction result was “CNS +”.
Turning to `Cn1c(=O)c2c(ncn2C)n(C)c1=O` [caffeine, reference compound], in data set [1], the Papp came out at 0.3 ×10⁻⁶ cm/s.

Values taken from publication PMC6480038, “In Vitro and In Silico Acetylcholinesterase Inhibitory Activity of Thalictricavine and Canadine and Their Predicted Penetration across the Blood-Brain Barrier” (Molecules, 2019).
